These results are taken from ChEMBL document CHEMBL1795245, “Pyrazoline based MAO inhibitors: synthesis, biological evaluation and SAR studies” (Bioorg Med Chem Lett, 2011).

For orientation: Ki means a measure of affinity in units of concentration, obtained from inhibition or displacement.

For data set [1], the target named is T1, Amine oxidase [flavin-containing] A (Homo sapiens, UniProt P21397).
T1 sequence (P21397 whole entry): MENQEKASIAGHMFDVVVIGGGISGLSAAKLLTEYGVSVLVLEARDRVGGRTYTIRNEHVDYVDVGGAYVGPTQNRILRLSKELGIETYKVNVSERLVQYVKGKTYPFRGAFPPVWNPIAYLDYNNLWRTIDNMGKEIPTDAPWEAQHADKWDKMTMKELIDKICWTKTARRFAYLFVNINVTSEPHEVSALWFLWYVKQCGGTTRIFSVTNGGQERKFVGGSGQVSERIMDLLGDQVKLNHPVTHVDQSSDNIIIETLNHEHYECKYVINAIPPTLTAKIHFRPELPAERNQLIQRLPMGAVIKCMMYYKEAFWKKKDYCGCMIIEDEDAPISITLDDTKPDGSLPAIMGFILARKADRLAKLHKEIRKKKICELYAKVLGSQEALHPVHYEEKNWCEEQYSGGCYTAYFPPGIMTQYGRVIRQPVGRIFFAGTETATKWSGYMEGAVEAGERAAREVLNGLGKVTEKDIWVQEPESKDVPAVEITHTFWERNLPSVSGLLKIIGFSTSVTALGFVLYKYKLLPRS
Kind of data set: Inhibition of human MAO-A expressed in BTI insect cells using p-tyramine as substrate after 60 mins.

The target in data set [2] is T2, Amine oxidase [flavin-containing] B (Homo sapiens, UniProt P27338).
T2 sequence (P27338 whole entry): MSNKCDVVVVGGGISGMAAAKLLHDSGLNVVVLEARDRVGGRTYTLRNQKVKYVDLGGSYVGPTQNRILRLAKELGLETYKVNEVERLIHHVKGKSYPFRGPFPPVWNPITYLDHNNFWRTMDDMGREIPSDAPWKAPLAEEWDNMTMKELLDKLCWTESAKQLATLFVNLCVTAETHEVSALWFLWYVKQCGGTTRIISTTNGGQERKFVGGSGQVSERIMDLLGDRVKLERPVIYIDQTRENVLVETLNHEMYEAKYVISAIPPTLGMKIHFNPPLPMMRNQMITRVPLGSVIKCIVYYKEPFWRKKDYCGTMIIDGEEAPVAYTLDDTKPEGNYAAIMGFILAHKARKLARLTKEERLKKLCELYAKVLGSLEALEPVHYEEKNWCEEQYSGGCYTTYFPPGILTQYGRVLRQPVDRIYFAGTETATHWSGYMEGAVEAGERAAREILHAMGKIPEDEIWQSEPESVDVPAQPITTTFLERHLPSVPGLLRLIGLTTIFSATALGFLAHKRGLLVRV
Kind of data set: Inhibition of human MAO-B expressed in BTI insect cells using p-tyramine as substrate after 60 mins. Type of data set: cell-based.

For another data set, the species on record is Homo sapiens. Kind of data set: Selectivity index, ratio of Ki for human MAO-A to Ki for human MAO-B expressed in BTI insect cells.
The target of data set [3] is T1, Amine oxidase [flavin-containing] A. As to the kind of experiment: Reversible inhibition of human MAO-A expressed in BTI insect cells using p-tyramine as substrate after 60 mins. To be noted: 1 h.
Data set [4] has the same target. Kind of data set: Competitive inhibition of human MAO-A expressed in BTI insect cells using p-tyramine as substrate after 60 mins. To be noted: 1 h.

SMILES strings stand for the structures.

With `COc1cccc(NC(=S)N2N=C(c3ccccc3)CC2c2ccc(O)cc2)c1` (centres undefined), the Ki amounted to 0.35 µM in data set [1] and 355 µM in data set [2]. Moreover, in the data set listed under Homo sapiens, the Ratio Ki was 0.000988. Besides, the “inhibition (INH)” value in data set [3] and in data set [4] was “Active” in each case.
In the case of `Cc1cccc(NC(=S)N2N=C(c3ccccc3)CC2c2ccccc2O)c1` (centres undefined), the results for the Ki in data set [1] and in data set [2] were 0.3 µM and 250 µM, respectively. In the data set filed under Homo sapiens, the Ratio Ki was 0.001. In addition, the “inhibition (INH)” value in data set [3] and in data set [4] was “Active” throughout.
On to `O=C(NCCN1CCOCC1)c1ccc(Cl)cc1` [MOCLOBEMIDE], for which the “inhibition (INH)” value in data set [3] and in data set [4] was “Active” in each case.
With `COc1ccc(NC(=S)N2N=C(c3ccccc3)CC2c2ccccc2O)cc1` (centres undefined), the Ki in data set [1] came to 0.17 µM; in data set [2], 60.2 µM. In addition, the Ratio Ki in the data set listed under Homo sapiens turned out to be 0.001. Also, the “inhibition (INH)” value in data set [3] and in data set [4] was “Active” in each case.
Take `Cc1cccc(NC(=S)N2N=C(c3ccccc3)CC2c2ccc(O)cc2)c1` (centres undefined): the Ki in data set [1] was determined as 0.13 µM; in data set [2] it was 256 µM. For the same compound, the Ratio Ki in the data set listed under Homo sapiens worked out at 0.000509. For the same compound, the “inhibition (INH)” value in data set [3] and in data set [4] was “Active” in each case.
Turning to `NC(=O)N1N=C(c2ccccc2)CC1c1ccncc1` (centres undefined), the Ki amounted to 7 µM in data set [1] and 4.79 µM in data set [2]. For the same compound, the Ratio Ki in the data set listed under Homo sapiens came out at 1.46. Further, the “inhibition (INH)” value in data set [3] and in data set [4] was “Active” throughout.
`N=C(N)N1N=C(c2ccccc2)CC1c1ccncc1` (centres undefined): the Ki in data set [1] was 0.67 µM; in data set [2], 4.8 µM. The Ratio Ki in the data set filed under Homo sapiens was determined as 0.14. Also, the “inhibition (INH)” value in data set [3] and in data set [4] was “Active” each time.
Consider `NC(=S)N1N=C(c2ccccc2)CC1c1ccncc1` (centres undefined), for which the Ki in data set [1] amounted to 0.456 µM; in data set [2], 4 µM. Besides, in the data set filed under Homo sapiens, the Ratio Ki worked out at 0.114. In addition, the “inhibition (INH)” value in data set [3] and in data set [4] was “Active” in each case.
As to `COc1ccccc1NC(=S)N1N=C(c2ccccc2)CC1c1ccccc1O` (centres undefined), the values for the Ki in data set [1] and in data set [2] were 0.31 µM and 60 µM, respectively. Moreover, in the data set listed under Homo sapiens, the Ratio Ki turned out to be 0.005. Further, the “inhibition (INH)” value in data set [3] and in data set [4] was “Active” each time.
On to `Cc1ccc(NC(=S)N2N=C(c3ccccc3)CC2c2ccc(O)cc2)cc1` (centres undefined), for which the Ki in data set [1] was 0.36 µM; in data set [2], 300 µM. Besides, in the data set filed under Homo sapiens, the Ratio Ki turned out to be 0.001. In addition, the “inhibition (INH)” value in data set [3] and in data set [4] was “Active” each time.
Turning to `COc1ccc(C2CC(c3ccccc3)=NN2C(N)=O)cc1` (centres undefined), the Ki in data set [1] stood at 0.98 µM; in data set [2], 1.88 µM. Besides, the Ratio Ki in the data set filed under Homo sapiens amounted to 0.521. The “inhibition (INH)” value in data set [3] and in data set [4] was “Active” in each case.
For the compound `Cc1ccc(NC(=S)N2N=C(c3ccccc3)CC2c2ccccc2O)cc1` (centres undefined), the Ki in data set [1] was found to be 0.29 µM; in data set [2], 69.9 µM. For the same compound, the Ratio Ki in the data set listed under Homo sapiens worked out at 0.004. Further, the “inhibition (INH)” value in data set [3] and in data set [4] was “Active” throughout.
For `Cc1ccc(C2CC(c3ccccc3)=NN2C(N)=O)cc1` (centres undefined), the Ki in data set [1] amounted to 0.49 µM; in data set [2] it was 3.2 µM. The Ratio Ki in the data set listed under Homo sapiens was 0.153. Besides, the “inhibition (INH)” value in data set [3] and in data set [4] was “Active” throughout.
As for `C#CCN(C)[C@H](C)Cc1ccccc1` [SELEGILINE], the “inhibition (INH)” value in data set [3] and in data set [4] was “Active” throughout.
In the case of `COc1ccc(NC(=S)N2N=C(c3ccccc3)CC2c2ccc(O)cc2)cc1` (centres undefined), the inhibitory constant (Ki) came to 0.09 µM in data set [1] and 401 µM in data set [2]. For the same compound, the Ratio Ki in the data set listed under Homo sapiens worked out at 0.000226. Besides, the “inhibition (INH)” value in data set [3] and in data set [4] was “Active” throughout.
As for `Cc1ccccc1NC(=S)N1N=C(c2ccccc2)CC1c1ccc(O)cc1` (centres undefined), the Ki is 0.31 µM in data set [1] and 309 µM in data set [2]. In the data set listed under Homo sapiens, the Ratio Ki stood at 0.001. Further, the “inhibition (INH)” value in data set [3] and in data set [4] was “Active” in each case.
`COc1cccc(NC(=S)N2N=C(c3ccccc3)CC2c2ccccc2O)c1` (centres undefined): the figures for the Ki in data set [1] and in data set [2] were 0.1 µM and 979 µM, respectively. In the data set listed under Homo sapiens, the Ratio Ki is 0.000102. Besides, the “inhibition (INH)” value in data set [3] and in data set [4] was “Active” in each case.
On to `N=C(N)N1N=C(c2ccccc2)CC1c1ccc(Cl)cc1` (centres undefined), for which the Ki in data set [1] is 0.15 µM; in data set [2] it was 4.22 µM. The Ratio Ki in the data set filed under Homo sapiens stood at 0.035. Moreover, the “inhibition (INH)” value in data set [3] and in data set [4] was “Active” each time.
As to `NC(=O)N1N=C(c2ccccc2)CC1c1ccc(Cl)cc1` (centres undefined), the Ki was determined as 0.3 µM in data set [1] and 1.66 µM in data set [2]. In addition, the Ratio Ki in the data set filed under Homo sapiens worked out at 0.181. Further, the “inhibition (INH)” value in data set [3] and in data set [4] was “Active” throughout.
Turning to `COc1ccccc1NC(=S)N1N=C(c2ccccc2)CC1c1ccc(O)cc1` (centres undefined), the Ki stood at 2.15 µM in data set [1] and 2130 µM in data set [2]. The Ratio Ki in the data set listed under Homo sapiens amounted to 0.001. The “inhibition (INH)” value in data set [3] and in data set [4] was “Active” each time.
For `Cc1ccc(C2CC(c3ccccc3)=NN2C(=N)N)cc1` (centres undefined), the Ki was 0.4 µM in data set [1] and 4.11 µM in data set [2]. In addition, the Ratio Ki in the data set filed under Homo sapiens was determined as 0.099. The “inhibition (INH)” value in data set [3] and in data set [4] was “Active” in each case.
For `Cc1ccccc1NC(=S)N1N=C(c2ccccc2)CC1c1ccccc1O` (centres undefined), the Ki worked out at 0.25 µM in data set [1] and 22 µM in data set [2]. The Ratio Ki in the data set filed under Homo sapiens came out at 0.001. The “inhibition (INH)” value in data set [3] and in data set [4] was “Active” each time.
